Test results from patent US20070049564A1 (Wyeth, priority 2005, published 2007).
Converted amounts (≈) assume the structure as drawn.

Legend:
Test in all cases: MIC, broth microdilution
S. epidermidis GC 4935 = details: Staphylococcus epidermidis, GC4935, S. epidermidis GC 4935
c. albicans GC 3066 = tested on: c. albicans GC 3066
E. faecalis GC 2265 = details: Enterococcus faecalis, GC2265, E. faecalis GC 2265
E. faecium GC 2243 = details: Enterococcus faecium, GC2243, E. faecium GC 2243
E. coli GC 2203 = details: Escherichia coli, GC2203, E. coli GC 2203
S. aureus GC 6467 = details: Staphylococcus aureus, GC6467, S. aureus GC 6467
Experimental: (§1) Antimicrobial susceptibility testing. The in vitro activities of the antibiotics are determined by the broth microdilution method as recommended by the National Committee for Clinical Laboratory Standards (NCCLS) (1). Mueller-Hinton II broth (MHBII)(BBL Cockeysville, Md.) is the medium employed in the testing procedures. Microtiter plates containing serial dilutions of each antimicrobial agent are inoculated with each organism to yield the appropriate density (10^5 CFU/ml) in a 100 μl final volume. The plates are incubated for 18-22 hours at 35° C. in ambient air.
(§2) Representative compounds were first incubated in mouse serum for an hour prior to the in vitro testing against a panel of selected gram-positive and gram-negative bacteria strains. All compounds were also pre-incubated in water for an hour prior to testing as control.

S. aureus GC 1131 = details: Staphylococcus aureus, GC1131, S. aureus GC 1131
S. aureus GC 1079 = details: Staphylococcus aureus, GC1079, S. aureus GC 1079
E. coli GC 2271 = details: Escherichia coli, GC2271, E. coli GC 2271
S. aureus GC 6469 = details: Staphylococcus aureus, GC6469, S. aureus GC 6469
E. coli GC 4560 = details: Escherichia coli, GC4560, E. coli GC 4560
E. coli GC 3226 = details: Escherichia coli, GC3226, E. coli GC 3226
E. coli GC 2270 = details: Escherichia coli, GC2270, E. coli GC 2270
E. coli GC 6465 = details: Escherichia coli, GC6465, E. coli GC 6465
P. aeruginosa GC 2214 = details: Pseudomonas aeruginosa, GC2214, P. aeruginosa GC 2214
E. faecalis GC 2267 = details: Enterococcus faecalis, GC2267, E. faecalis GC 2267
E. coli GC 1073 = details: Escherichia coli, GC1073, E. coli GC 1073
E. coli GC 2233 = details: Escherichia coli, GC2233, E. coli GC 2233
Experimental: as §1, §2

E. coli GC 2272 = details: Escherichia coli, GC2272, E. coli GC 2272
S. aureus GC 6335 = details: Staphylococcus aureus, GC6335, S. aureus GC 6335
[1] = c. albicans GC 3066, Water pre-incubation

Structure (SMILES)	MIC (S. epidermidis GC 4935; Mouse Serum pre-incubation) [µg/mL]	MIC (S. epidermidis GC 4935; Water pre-incubation) [µg/mL]	MIC (c. albicans GC 3066; Candida albicans, GC3066) [µg/mL]	MIC (c. albicans GC 3066; [1]) [UG/ML]	MIC (E. faecalis GC 2265; Mouse Serum pre-incubation) [µg/mL]	MIC (E. faecalis GC 2265; Water pre-incubation) [µg/mL]	MIC (E. faecium GC 2243; Mouse Serum pre-incubation) [µg/mL]	MIC (E. faecium GC 2243; Water pre-incubation) [µg/mL]	MIC (E. coli GC 2203; Mouse Serum pre-incubation) [µg/mL]	MIC (E. coli GC 2203; Water pre-incubation) [µg/mL]	MIC (S. aureus GC 6467; Mouse Serum pre-incubation) [µg/mL]	MIC (S. aureus GC 6467; Water pre-incubation) [µg/mL]	MIC (S. aureus GC 1131; Mouse Serum pre-incubation) [µg/mL]	MIC (S. aureus GC 1131; Water pre-incubation) [µg/mL]	MIC (S. aureus GC 1079; Mouse Serum pre-incubation) [µg/mL]	MIC (S. aureus GC 1079; Water pre-incubation) [µg/mL]	MIC (E. coli GC 2271; Mouse Serum pre-incubation) [µg/mL]	MIC (E. coli GC 2271; Water pre-incubation) [µg/mL]	MIC (S. aureus GC 6469; Mouse Serum pre-incubation) [µg/mL]	MIC (S. aureus GC 6469; Water pre-incubation) [µg/mL]	further results
CCCN(CC(=O)Nc1cc(N(C)C)c2c(c1O)C(=O)C1=C(O)[C@]3(O)C(=O)C(C(N)=O)=C(O)[C@@H](N(C)C)[C@@H]3C[C@@H]1C2)C(=O)OCOC(=O)C1CCC1 [Example 7, ({[(2-{[(5aR,6aS,7S,10aS)-9-(aminocarbonyl)-4,7-bis(dimethylamino)-1,8,10a,11-tetrahydroxy-10,12-dioxo-5,5a,6,6a,7,10,10a,12-octahydrotetracen-2-yl]amino}-2-oxoethyl)(propyl)amino]carbonyl}oxy)methyl cyclobutanecarboxylate]	2 (≈ 2.75 µM)	2 (≈ 2.75 µM)	> 64	>64	1 (≈ 1.37 µM)	2 (≈ 2.75 µM)	0.25 (≈ 0.344 µM)	0.12 (≈ 0.165 µM)	0.5 (≈ 0.687 µM)	4 (≈ 5.5 µM)	4 (≈ 5.5 µM)	4 (≈ 5.5 µM)	1 (≈ 1.37 µM)	1 (≈ 1.37 µM)	1 (≈ 1.37 µM)	4 (≈ 5.5 µM)	0.5 (≈ 0.687 µM)	4 (≈ 5.5 µM)	2 (≈ 2.75 µM)	4 (≈ 5.5 µM)	MIC (E. coli GC 4560; Mouse Serum pre-incubation): 0.25 µg/mL (≈ 0.344 µM); MIC (E. coli GC 4560; Water pre-incubation): 0.5 µg/mL (≈ 0.687 µM); MIC (E. coli GC 3226; Mouse Serum pre-incubation): 0.5 µg/mL (≈ 0.687 µM); MIC (E. coli GC 3226; Water pre-incubation): 8 µg/mL (≈ 11 µM); MIC (E. coli GC 2270; Mouse Serum pre-incubation): 0.5 µg/mL (≈ 0.687 µM); MIC (E. coli GC 2270; Water pre-incubation): 4 µg/mL (≈ 5.5 µM); MIC (E. coli GC 6465; Mouse Serum pre-incubation): 16 µg/mL (≈ 22 µM); MIC (E. coli GC 6465; Water pre-incubation): > 64 µg/mL; MIC (P. aeruginosa GC 2214; Mouse Serum pre-incubation): 16 µg/mL (≈ 22 µM); MIC (P. aeruginosa GC 2214; Water pre-incubation): > 64 µg/mL; MIC (E. faecalis GC 2267; Mouse Serum pre-incubation): 1 µg/mL (≈ 1.37 µM); MIC (E. faecalis GC 2267; Water pre-incubation): 2 µg/mL (≈ 2.75 µM); MIC (E. coli GC 1073; Mouse Serum pre-incubation): 0.5 µg/mL (≈ 0.687 µM); MIC (E. coli GC 1073; Water pre-incubation): 8 µg/mL (≈ 11 µM); MIC (E. coli GC 2233; Mouse Serum pre-incubation): 0.5 µg/mL (≈ 0.687 µM); MIC (E. coli GC 2233; Water pre-incubation): 4 µg/mL (≈ 5.5 µM); MIC (E. coli GC 2272; Mouse Serum pre-incubation): 0.5 µg/mL (≈ 0.687 µM); MIC (E. coli GC 2272; Water pre-incubation): 4 µg/mL (≈ 5.5 µM); MIC (S. aureus GC 6335; Mouse Serum pre-incubation): 1 µg/mL (≈ 1.37 µM); MIC (S. aureus GC 6335; Water pre-incubation): 1 µg/mL (≈ 1.37 µM)
CCCCN(CC(=O)Nc1cc(N(C)C)c2c(c1O)C(=O)C1=C(O)[C@]3(O)C(=O)C(C(N)=O)=C(O)[C@@H](N(C)C)C3CC1C2)C(=O)OCOC(=O)c1ccc(C)cc1 (stereo partly drawn) [Example 3, ({[(2-{[(7S,10aS)-9-(aminocarbonyl)-4,7-bis(dimethylamino)-1,8,10a,11-tetrahydroxy-10,12-dioxo-5,5a,6,6a,7,10,10a,12-octahydrotetracen-2-yl]amino}-2-oxoethyl)(butyl)amino]carbonyl}oxy)methyl 4-methylbenzoate]	4 (≈ 5.14 µM)	8 (≈ 10.3 µM)	> 64	>64	2 (≈ 2.57 µM)	32 (≈ 41.1 µM)	1 (≈ 1.29 µM)	4 (≈ 5.14 µM)	1 (≈ 1.29 µM)	> 64	4 (≈ 5.14 µM)	32 (≈ 41.1 µM)	2 (≈ 2.57 µM)	4 (≈ 5.14 µM)	2 (≈ 2.57 µM)	32 (≈ 41.1 µM)	1 (≈ 1.29 µM)	> 64	4 (≈ 5.14 µM)	32 (≈ 41.1 µM)	MIC (E. coli GC 4560; Mouse Serum pre-incubation): 0.5 µg/mL (≈ 0.643 µM); MIC (E. coli GC 4560; Water pre-incubation): 32 µg/mL (≈ 41.1 µM); MIC (E. coli GC 3226; Mouse Serum pre-incubation): 2 µg/mL (≈ 2.57 µM); MIC (E. coli GC 3226; Water pre-incubation): > 64 µg/mL; MIC (E. coli GC 2270; Mouse Serum pre-incubation): 1 µg/mL (≈ 1.29 µM); MIC (E. coli GC 2270; Water pre-incubation): > 64 µg/mL; MIC (E. coli GC 6465; Mouse Serum pre-incubation): 8 µg/mL (≈ 10.3 µM); MIC (E. coli GC 6465; Water pre-incubation): > 64 µg/mL; MIC (P. aeruginosa GC 2214; Mouse Serum pre-incubation): 32 µg/mL (≈ 41.1 µM); MIC (P. aeruginosa GC 2214; Water pre-incubation): > 64 µg/mL; MIC (E. faecalis GC 2267; Mouse Serum pre-incubation): 2 µg/mL (≈ 2.57 µM); MIC (E. faecalis GC 2267; Water pre-incubation): 32 µg/mL (≈ 41.1 µM); MIC (E. coli GC 1073; Mouse Serum pre-incubation): 2 µg/mL (≈ 2.57 µM); MIC (E. coli GC 1073; Water pre-incubation): > 64 µg/mL; MIC (E. coli GC 2233; Mouse Serum pre-incubation): 1 µg/mL (≈ 1.29 µM); MIC (E. coli GC 2233; Water pre-incubation): > 64 µg/mL; MIC (E. coli GC 2272; Mouse Serum pre-incubation): 1 µg/mL (≈ 1.29 µM); MIC (E. coli GC 2272; Water pre-incubation): > 64 µg/mL; MIC (S. aureus GC 6335; Mouse Serum pre-incubation): 2 µg/mL (≈ 2.57 µM); MIC (S. aureus GC 6335; Water pre-incubation): 8 µg/mL (≈ 10.3 µM)
